Measured values published in patent publication US11596151B2, “Compositions for the protection of agrarian crops and use thereof” (priority 2017, dated 2023).

Test: Solubility of fluindapyr in test solvent at 140 g/L, crystal growth check after one week at 0° C.
Format: physicochemical
Design: key: PASS: A solution without crystal growth under the storage condition was considered a Pass
Experimental: In order to test the solubility of an active ingredient comprising an aminoindane amide active compound, fluindapyr was added into a test solvent at the concentration of 140 g/L under sufficient agitation. The test solvents were selected based on Hansen Solubility Parameters with a Relative Energy Difference (RED) of between 0.7 and 1.6. The completed dissolved solutions were further stored for one week at 0° C. to check if any crystals grew or not under the storage condition.

Dissolution (solvent 2-ethylhexanol): FAIL | Dissolution (solvent N,N-dimethyldecanamide): PASS | Dissolution (solvent N-butyl acetate): FAIL | Dissolution (solvent N-heptane): FAIL | Dissolution (solvent O-dichlorobenzene): FAIL | Dissolution (solvent POWERBLOX SV-17): FAIL | Dissolution (solvent acetonitrile): FAIL | Dissolution (solvent dibutyl ether): FAIL | Dissolution (solvent diethylene glycol monoethyl ether): PASS | Dissolution (solvent diethylene glycol monomethyl ether): PASS | Dissolution (solvent diethylene glycol n-butyl ether acetate): FAIL | Dissolution (solvent diisobutyl ketone): FAIL | Dissolution (solvent dimethyl formamide): FAIL | Dissolution (solvent dipropylene glycol methyl ether acetate): FAIL | Dissolution (solvent dipropylene glycol n-butyl ether): FAIL | Dissolution (solvent dipropylene glycol n-propyl ether): FAIL | Dissolution (solvent dipropyleneglycol phenyl ether): FAIL | Dissolution (solvent ethoxytriglycol): FAIL | Dissolution (solvent ethylene glycol monobutyl ether): FAIL | Dissolution (solvent ethylene glycol n-butyl ether acetate): FAIL | Dissolution (solvent ethylene glycol phenyl ether): FAIL | Dissolution (solvent isobutyl heptyl ketone): FAIL | Dissolution (solvent methyl alcohol): FAIL | Dissolution (solvent methyl ethyl ketone): FAIL | Dissolution (solvent methyl isobutyl ketone): FAIL | Dissolution (solvent perchloroethylene): FAIL | Dissolution (solvent propylene carbonate): FAIL | Dissolution (solvent propylene glycol): FAIL | Dissolution (solvent propylene glycol diacetate): FAIL | Dissolution (solvent propylene glycol monomethyl ether acetate): FAIL | Dissolution (solvent propylene glycol n-butyl ether): FAIL | Dissolution (solvent propylene glycol phenyl ether): FAIL | Dissolution (solvent tetrahydrofuran): FAIL | Dissolution (solvent toluene): FAIL | Dissolution (solvent tripropylene glycol n-butyl ether): FAIL
Compound: CC1CC(C)(C)c2c(F)ccc(NC(=O)c3cn(C)nc3C(F)F)c21 (centres unmarked) [fluindapyr]
